From patent US20080262029A1, “Acid and Base Salt Forms of Gaboxadol” (H. Lundbeck A/S, priority 2005, published 2008)
Counter-ions that a name gives are not always drawn.

What was measured:
[1] = Differential scanning calorimetry (DSC) of gaboxadol salt forms; type: physicochemical; conditions: for DSC exothermic decomposition onset / DSC exothermic transition onset: 25 to 300° C., 10° C./min, dry nitrogen
Method: (§1) The X-ray powder diffraction spectra was generated on a Philips Analytical X'Pert PRO X-ray Diffraction System with PW3040/60 console. A PW3373/00 ceramic Cu LEF X-ray tube K-Alpha radiation was used as the source. The X-ray powder diffraction spectrum was recorded at ambient temperature (CuKα radiation, 3° to 40° (2θ), steps of 0.014°, 0.2 sec per step), giving the results herein. Solid-state carbon-13 NMR spectrum was obtained on a Bruker DSX 400WB NMR system using a Bruker 4 mm double resonance CPMAS probe. Carbon-13 NMR spectrum utilized proton/carbon-13 cross-polarization magic-angle spinning with variable-amplitude cross polarization. The sample was spun at 15.0 kHz, and a total of 2048 scans were collected with a recycle delay of 20 seconds. A line broadening of 40 Hz was applied to the spectrum before FT was performed. Chemical shifts are reported on the TMS scale using the carbonyl carbon of glycine (176.03 p.p.m.) as a secondary reference. DSC traces were recorded between 25 and 300° C. (10° C./min), under a flow of dry nitrogen. TGA was carried out between 25 and 300° C. (10° C./min), under a flow of dry nitrogen.

[2] = Thermogravimetric analysis (TGA) of gaboxadol salt forms; type: physicochemical; conditions: for TGA decomposition onset / TGA weight loss before decomposition (in words): 25 to 300° C., 10° C./min, dry nitrogen
Method: as §1

[3] = target: GABAA receptors comprising α4 and δ subunits (Homo sapiens, UniProt O14764+P48169); conditions: Brown et al, British J. Pharmacol., 136, 965-74 (2002); cited from earlier work
Chain of GABAA receptors comprising α4 and δ subunits (P48169 36-554): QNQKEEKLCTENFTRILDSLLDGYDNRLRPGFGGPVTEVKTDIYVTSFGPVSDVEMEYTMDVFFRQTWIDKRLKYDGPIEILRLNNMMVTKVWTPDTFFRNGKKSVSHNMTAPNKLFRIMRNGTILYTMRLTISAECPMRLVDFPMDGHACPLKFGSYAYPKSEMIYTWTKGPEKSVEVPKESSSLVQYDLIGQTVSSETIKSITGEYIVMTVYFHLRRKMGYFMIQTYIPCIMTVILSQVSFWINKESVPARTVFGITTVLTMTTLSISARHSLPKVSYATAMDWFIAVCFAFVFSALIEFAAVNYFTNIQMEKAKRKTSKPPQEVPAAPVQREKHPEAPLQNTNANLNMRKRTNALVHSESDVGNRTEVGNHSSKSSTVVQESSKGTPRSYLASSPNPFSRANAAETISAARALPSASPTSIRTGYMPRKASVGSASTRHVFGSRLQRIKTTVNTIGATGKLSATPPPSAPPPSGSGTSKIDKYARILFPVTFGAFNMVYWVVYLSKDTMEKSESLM
Chain of GABAA receptors comprising α4 and δ subunits (O14764 25-452): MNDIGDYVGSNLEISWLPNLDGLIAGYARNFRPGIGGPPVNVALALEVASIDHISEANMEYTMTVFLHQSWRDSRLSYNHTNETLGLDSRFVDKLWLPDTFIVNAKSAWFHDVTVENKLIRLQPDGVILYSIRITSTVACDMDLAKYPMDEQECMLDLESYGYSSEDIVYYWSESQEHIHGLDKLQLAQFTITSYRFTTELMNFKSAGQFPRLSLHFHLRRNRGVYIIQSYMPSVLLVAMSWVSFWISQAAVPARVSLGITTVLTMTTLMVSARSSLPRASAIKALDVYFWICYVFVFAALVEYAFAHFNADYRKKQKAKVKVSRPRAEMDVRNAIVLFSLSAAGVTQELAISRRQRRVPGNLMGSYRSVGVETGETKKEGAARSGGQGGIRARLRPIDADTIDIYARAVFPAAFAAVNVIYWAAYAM
Chain of GABAA receptors comprising α4 and δ subunits (P28472 26-473 partner): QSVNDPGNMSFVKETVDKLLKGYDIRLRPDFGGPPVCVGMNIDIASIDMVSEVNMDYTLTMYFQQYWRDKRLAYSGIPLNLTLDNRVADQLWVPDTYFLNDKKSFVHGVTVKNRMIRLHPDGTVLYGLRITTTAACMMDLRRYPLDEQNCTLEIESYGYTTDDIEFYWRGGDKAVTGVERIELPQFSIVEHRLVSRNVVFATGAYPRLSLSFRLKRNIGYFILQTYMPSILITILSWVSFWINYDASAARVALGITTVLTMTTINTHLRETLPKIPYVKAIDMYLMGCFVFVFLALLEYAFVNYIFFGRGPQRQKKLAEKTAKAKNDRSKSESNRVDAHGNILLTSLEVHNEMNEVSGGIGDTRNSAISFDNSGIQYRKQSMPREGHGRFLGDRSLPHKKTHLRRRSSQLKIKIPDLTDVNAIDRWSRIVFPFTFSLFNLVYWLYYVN

Compound	DSC observation of exothermic events (in words) ([1]; solid analysed by DSC)	DSC exothermic decomposition onset [1]	TGA decomposition onset [2]	further results
gaboxadol L-lysine [L-Lysine Salt]	exhibited exothermic transitions	–	–	–
gaboxadol tartrate [L-Tartrate Salt]	–	199 °C	about 189 °C	TGA weight loss ([2]; from 31° C. to 177° C.): 0.6 wt %
gaboxadol phosphate [Phosphate Salt]	–	about 200 °C	214 °C	TGA weight loss before decomposition (in words) [2]: no weight loss
Oc1noc2c1CCNC2 [Potassium Salt, gaboxadol potassium]	exhibited exothermic transitions	–	–	–
C[N+](C)(C)CCO.[O-]c1noc2c1CCNC2 [Choline Salt, gaboxadol choline]	exhibited exothermic transitions	–	–	–
gaboxadol bis-sulfate [Sulfate Salt from ethanol and acetonitrile (Type III)]	–	207 °C	about 220 °C	TGA weight loss, step 2 ([2]; from 118° C. to 154° C.): 0.8 wt %; TGA weight loss, step 1 ([2]; from about 50° C. to 118° C.): 1.4 wt %
gaboxadol fumarate [Fumarate Salt]	–	215 °C	about 190 °C	TGA weight loss before decomposition (in words) [2]: no weight loss
gaboxadol sulfate [Sulfate Salt (1 mol equiv.)]	–	about 190 °C	196 °C	TGA weight loss ([2]; from 50° C. to 176° C.): 7.1 wt %
Oc1noc2c1CCNC2 [Calcium Salt, gaboxadol calcium]	exhibited exothermic decomposition	–	–	–
gaboxadol acetate [Acetate Salt]	–	–	205 °C	DSC exothermic transition onset [1]: 204 °C; TGA weight loss ([2]; from 40° C. to 115° C.): 5.0 wt %
Oc1noc2c1CCNC2 [gaboxadol, 4,5,6,7-tetrahydroisoxazolo[5,4-c]pyridin-3-ol]	–	–	–	Agonist potency (in words) [3]: particularly potent agonist
O=C(O)CC(O)(CC(=O)O)C(=O)O.Oc1noc2c1CCNC2 [gaboxadol citrate]	–	175 °C	about 190 °C	TGA weight loss ([2]; from 32° C. to 103° C.): 8.9 wt %
Oc1noc2c1CCNC2.c1ccc(CNCCNCc2ccccc2)cc1 [N,N-Dibenzyl-ethylenediamine Salt, gaboxadol N,N-dibenzyl(ethylene)diamine]	exhibited an exothermic transition	–	–	–
gaboxadol citrate [Citrate Salt from isopropyl acetate]	–	–	about 190 °C	DSC exothermic transition onset [1]: 175 °C; TGA weight loss ([2]; from 31° C. to 109° C.): 18.5 wt %
gaboxadol bis-sulfate [Sulfate Salt from trifluorotoluene (Type I)]	–	220 °C	about 220 °C	TGA weight loss, step 2 ([2]; from 87° C. to 180° C.): 4.3 wt %; TGA weight loss, step 1 ([2]; from about 50° C. to 87° C.): 1.2 wt %
gaboxadol succinate [Succinate Salt]	–	198 °C	193 °C	TGA weight loss before decomposition (in words) [2]: no weight loss
gaboxadol magnesium [Magnesium Salt]	–	–	–	Temperature below which DSC indicated no exothermic events ([1]; solid analysed by DSC): approximately 345 °C
Oc1noc2c1CCNC2 [Sodium Salt, gaboxadol sodium]	exhibited exothermic transitions	–	–	–
